# Laboratory results: patent publication US20220056019A1, “FARNESOID X RECEPTOR AGONISTS AND USES THEREOF” (Metacrine, Inc., priority 2018, published 2022)
# pEC50: −log10 of the molar value.
# Molecular target: T1, hFXR (Homo sapiens, UniProt Q96RI1)
# T1 construct: expressed in transfected cells; host or cells: CV-1 cells
# T1 sequence (Q96RI1 1-486): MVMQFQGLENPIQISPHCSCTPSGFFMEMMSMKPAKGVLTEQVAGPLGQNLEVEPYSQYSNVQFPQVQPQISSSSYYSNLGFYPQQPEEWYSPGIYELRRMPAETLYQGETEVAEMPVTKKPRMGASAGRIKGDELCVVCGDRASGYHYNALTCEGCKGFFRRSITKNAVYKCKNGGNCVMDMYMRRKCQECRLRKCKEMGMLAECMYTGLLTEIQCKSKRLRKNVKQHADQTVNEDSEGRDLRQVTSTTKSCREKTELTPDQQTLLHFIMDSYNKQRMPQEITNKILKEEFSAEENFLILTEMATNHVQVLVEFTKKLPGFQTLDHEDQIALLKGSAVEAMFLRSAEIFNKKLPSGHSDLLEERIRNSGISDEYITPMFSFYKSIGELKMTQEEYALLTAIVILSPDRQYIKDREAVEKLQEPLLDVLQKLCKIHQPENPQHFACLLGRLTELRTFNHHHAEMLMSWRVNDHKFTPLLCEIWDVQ
# T1 sequence (P19793 1-462 partner): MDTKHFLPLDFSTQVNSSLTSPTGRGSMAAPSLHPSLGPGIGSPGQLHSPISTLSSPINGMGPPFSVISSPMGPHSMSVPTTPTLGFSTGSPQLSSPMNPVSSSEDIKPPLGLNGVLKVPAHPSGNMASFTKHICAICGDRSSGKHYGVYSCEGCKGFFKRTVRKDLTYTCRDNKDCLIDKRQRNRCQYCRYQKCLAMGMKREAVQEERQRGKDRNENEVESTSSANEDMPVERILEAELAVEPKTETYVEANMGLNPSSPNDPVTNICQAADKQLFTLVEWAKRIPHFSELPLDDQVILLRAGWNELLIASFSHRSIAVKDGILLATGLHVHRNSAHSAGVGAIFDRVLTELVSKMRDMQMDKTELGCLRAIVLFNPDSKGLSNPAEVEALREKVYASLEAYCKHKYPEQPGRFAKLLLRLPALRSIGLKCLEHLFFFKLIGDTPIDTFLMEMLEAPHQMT
# Test: In Vitro FXR Assay (TK): TK-ECRE-luc reporter in transfected CV-1 cells
# Type: cell-based
# Settings: 18 hrs incubation, luminescence
# Procedure, shortened: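 Reporter gene assay: CV-1 cells co-expressing hFXR, hRXR, TK-ECRE-luc and pCMX-YFP after overnight transfection in charcoal-stripped serum. Treatment with serially diluted compounds lasted 18 hrs at 37 °C, followed by cell lysis and a luminescence measurement.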
smiles,measurement,value
"COc1ccc([C@H]2CC[C@H](CN(c3cc(-c4cnn(C(C)C)c4)ccn3)C(=O)[C@H]3CC[C@H](OC(=O)N4CCNCC4)CC3)CC2)cc1C [Compound 2.15, trans-4-((4-(1-Isopropyl-1H-pyrazol-4-yl)pyridin-2-yl) ((trans-4-(4-methoxy-3-methylphenyl)cyclohexyl)methyl)carbamoyl) cyclohexyl piperazine-1-carboxylate]",pEC50,6.00 to 7.30
"COc1ccc(C23CCC(CN(c4cc(-c5cnc(C(C)C)s5)ccn4)C(=O)[C@H]4CC[C@H](OC(=O)NCCO)CC4)(CC2)CC3)cc1C [Compound 4.36, 4-((4-(2-Isopropylthiazol-5-yl)pyridin-2-yl)((4-(4-methoxy-3-methylphenyl)bicyclo[2.2.2]octan-1-yl)methyl)carbamoyl) cyclohexyl(2-hydroxyethyl)trans-carbamate]",pEC50,≥ 7.30
"COc1ccc(C23CCC(CN(c4cc(-c5cnn(C(C)C)c5)ccn4)C(=O)[C@H]4CC[C@H](NC(=O)OC5CCOCC5)CC4)(CC2)CC3)cc1C [Compound 7.03, (trans)-Tetrahydro-2H-pyran-4-yl (4-((4-(1-isopropyl-1H-pyrazol-4-yl)pyridin-2-yl)((4-(4-methoxy-3-methylphenyl)bicyclo[2.2.2]octan-1-yl)methyl)carbamoyl)cyclohexyl) carbamate]",pEC50,≥ 7.30
"COc1ccc([C@H]2CC[C@H](CN(c3cc(-c4cnn(C(C)C)c4)ccn3)C(=O)[C@H]3CC[C@H](OC(=O)N4CCN(C)CC4)CC3)CC2)cc1Cl [Compound 2.06, trans-4-(((trans-4-(3-Chloro-4-methoxyphenyl)cyclohexyl)methyl)(4-(1-isopropyl-1H-pyrazol-4-yl)pyridin-2-yl)carbamoyl)cyclohexyl 4-methylpiperazine-1-carboxylate]",pEC50,≥ 7.30
"COc1ccc(C23CCC(CN(c4cc(-c5cnn(C6(C)CCC6)c5)c(F)cn4)C(=O)[C@H]4CC[C@H](OC(=O)N5CC(O)C5)CC4)(CC2)CC3)cc1C [Compound 25.18, 4-((5-Fluoro-4-(1-(1-methylcyclobutyl)-1H-pyrazol-4-yl)pyridin-2-yl)((4-(4-methoxy-3-methylphenyl)bicyclo[2.2.2]octan-1-yl)methyl)carbamoyl)cyclohexyl trans-3-hydroxyazetidine-1-carboxylate]",pEC50,≥ 7.30
"COc1ccc([C@H]2CC[C@H](CN(c3cc(-c4cnn(C(C)C)c4)ccn3)C(=O)[C@H]3CC[C@H](OC(=O)N4CC(OCCO)C4)CC3)CC2)cc1C [Compound 2.11, trans-4-((4-(1-Isopropyl-1H-pyrazol-4-yl)pyridin-2-yl)(((trans)-4-(4-methoxy-3-methylphenyl)cyclohexyl)methyl)carbamoyl) cyclohexyl3-(2-hydroxyethoxy)azetidine-1-carboxylate]",pEC50,≥ 7.30
"COc1ccc([C@H]2CC[C@H](CN(c3cc(-c4cnn(C(C)C)c4)ccn3)C(=O)[C@H]3CC[C@H](OC(=O)N4CC(N(C)C)C4)CC3)CC2)cc1C [Compound 2.13, trans-4-((4-(1-Isopropyl-1H-pyrazol-4-yl)pyridin-2-yl)(((trans)-4-(4-methoxy-3-methylphenyl)cyclohexyl)methyl)carbamoyl) cyclohexyl 3-(dimethylamino)azetidine-1-carboxylate]",pEC50,≥ 7.30
"COc1ccc(C23CCC(CN(c4cc(-c5cnn(C(C)C)c5)ccn4)C(=O)[C@H]4CC[C@H](OC(=O)N5CC(O)C5)CC4)(CC2)CC3)cc1Cl [Compound 4.16, 4-(((4-(3-Chloro-4-methoxyphenyl)bicyclo [2.2.2]octan-1-yl)methyl) (4-(1-isopropyl-1H-pyrazol-4-yl)pyridin-2-yl)carbamoyl)cyclohexyl hydroxyazetidine-1-carboxylate]",pEC50,≥ 7.30
"COC(=O)N[C@H]1CC[C@H](C(=O)N(CC23CCC(c4ccc(OC)c(C)c4)(CC2)CC3)c2cc(-c3cnn(C(C)C)c3)ccn2)CC1 [Compound 8, Methyl trans-(4-((4-(1-isopropyl-1H-pyrazol-4-yl)pyridin-2-yl)((4-(4-methoxy-3-methylphenyl)bicyclo[2.2.2]octan-1-yl)methyl)carbamoyl)cyclohexyl)carbamate]",pEC50,≥ 7.30
"COC(=O)CCC(=O)N[C@H]1CC[C@H](C(=O)N(C[C@H]2CC[C@H](c3ccc(OC)c(C)c3)CC2)c2cccc(-c3cnn(C(C)C)c3)c2)CC1 [Compound 10.04, Methyl 4-((trans-4-((3-(1-isopropyl-1H-pyrazol-4-yl)phenyl)((trans-4-(4-methoxy-3-methylphenyl)cyclohexyl)methyl)carbamoyl)cyclohexyl)amino)-4-oxobutanoate]",pEC50,6.00 to 7.30
"COc1ccc([C@H]2CC[C@H](CN(c3cc(-c4cnc(C5CC5)s4)ccn3)C(=O)[C@H]3CC[C@H](OC(=O)NC4COC4)CC3)CC2)cc1C [Compound 2.54, trans-4-((4-(2-Cyclopropylthiazol-5-yl)pyridin-2-yl)(((trans)-4-(4-methoxy-3-methylphenyl)cyclohexyl)methyl)carbamoyl)cyclohexyl oxetan-3-ylcarbamate]",pEC50,≥ 7.30
"COc1ccc([C@H]2CC[C@H](CN(c3cccc(-c4cnn(C(C)C)c4)c3)C(=O)[C@H]3CC[C@H](OC(=O)NC[C@H](F)CO)CC3)CC2)cc1C [Compound 5.07, trans-4-((3-(1-Isopropyl-1H-pyrazol-4-yl)phenyl)(((trans)-4-(4-methoxy-3-methylphenyl)cyclohexyl)methyl)carbamoyl)cyclohexyl ((S)-2-fluoro-3-hydroxypropyl) carbamate]",pEC50,≥ 7.30
